Assay results reported in patent publication US20250250261A1, “NOVEL SUBSTITUTED FLUORINATED VINYL-N-PROPYL-PYRROLIDINE COMPOUNDS, PROCESSES FOR THEIR PREPARATION AND THERAPEUTIC USES THEREOF” (SANOFI, priority 2022, published 2025).

Biological target: T1, ERα (Homo sapiens, UniProt P03372)
T1 construct: host or cells: MCF7
T1 sequence (P03372 1-595): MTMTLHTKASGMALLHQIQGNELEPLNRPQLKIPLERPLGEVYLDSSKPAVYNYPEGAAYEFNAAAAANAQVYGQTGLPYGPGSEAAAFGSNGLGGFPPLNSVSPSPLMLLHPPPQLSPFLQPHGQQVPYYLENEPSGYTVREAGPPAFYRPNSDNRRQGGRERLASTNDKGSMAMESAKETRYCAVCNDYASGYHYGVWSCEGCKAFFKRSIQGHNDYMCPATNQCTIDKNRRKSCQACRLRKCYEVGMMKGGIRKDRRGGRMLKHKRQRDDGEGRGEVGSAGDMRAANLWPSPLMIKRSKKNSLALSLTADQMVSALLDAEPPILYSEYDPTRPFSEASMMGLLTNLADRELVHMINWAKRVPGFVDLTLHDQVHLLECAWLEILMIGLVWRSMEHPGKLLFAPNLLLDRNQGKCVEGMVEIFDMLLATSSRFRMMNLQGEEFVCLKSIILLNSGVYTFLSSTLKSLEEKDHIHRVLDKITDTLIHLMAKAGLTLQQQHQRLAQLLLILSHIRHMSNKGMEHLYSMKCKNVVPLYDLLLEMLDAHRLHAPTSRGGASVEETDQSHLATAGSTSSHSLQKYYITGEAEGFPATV
Test: Estrogen receptor degradation activity: breast cancer cell ERα in cell western assay (MCF7 cells)
Type: cell-based
Conditions: 4 hours, % of ERα levels decrease relative to fulvestrant (0.1 μM) and DMSO
Procedure: Test: Estrogen Receptor Degradation Activity
Said test involves measuring the in vitro degradation activity of the compounds of the Table 1a.
The measurements of the degradation activities were made using a breast cancer cell ERα in cell western assay as described hereunder.
MCF7 cells (ATCC) were seeded in 384 wells microplate (collagen coated) at a concentration of 10000 cells/30 μL per well in red phenol free MEM alpha medium (invitrogen) containing 5% charcoal dextran striped FBS. The following day, 9 points serial 1:5 dilution of each compound was added to the cells in 2.5 μL at final concentrations ranging from 0.3-0.0000018 μM (in table 2), or 0.1 μM for fulvestrant (using as positive control). At 4 hours post compound addition the cells were fixed by adding 25 μL of formalin (final concentration 5% formalin containing 0.1% triton) for 10 minutes at room temperature and then washed twice with PBS. Then, 50 μL of LI-COR blocking buffer containing 0.1% Triton was added to plate for 30 minutes at room temperature. LI-COR blocking buffer was removed and cells were incubated overnight at cold room with 50 μL anti-ER rabbit monoclonal antibody (Thermo scientific MA1-39540) diluted at 1:1000 in LI-COR blocking buffer containing 0.1% tween-20. Wells which were treated with blocking buffer but no antibody were used as background control. Wells were washed twice with PBS (0.1% tween-20) and incubated at 37° C. for 60 minutes in LI-COR (0.1% tween-20) containing goat anti-rabbit antibody Alexa 488 (1:1000) and Syto-64 a DNA dye (2 μM final concentration). Cells were then washed 3 times in PBS and scanned in ACUMEN explorer (TTP-Labtech). Integrated intensities in the green fluorescence and red fluorescence were measured to determine the levels of ERα and DNA respectively.
The degradation activity with respect to estrogen receptors in this test is given by the concentration which degrades 50% of the estrogen receptor (or IC50) in nM.
The % of ERα levels decrease were determined as follows: % inhibition=100*(1−(sample−fulvestrant:DMSO−fulvestrant)).

Row | Structure (SMILES) | % Degradation At 0.3 μM
1 | Cc1cc(F)cc(C)c1C1=C(c2ccc(/C=C3/CCN(CCCF)C3)cc2)c2ccc(C(=O)O)cc2CCC1 [Compound 21, (Z)-8-(4-fluoro-2,6-dimethylphenyl)-9-(4-((1-(3-fluoropropyl)pyrrolidin-3-ylidene)methyl)phenyl)-6,7-dihydro-5H-benzo[7]annulene-3-carboxylic acid] | 94%
2 | O=C(O)c1ccc2c(c1)CCCC(c1ccccc1C(F)(F)F)=C2c1ccc(/C=C2/CCN(CCCF)C2)cc1 [Compound 22, (Z)-9-(4-((1-(3-fluoropropyl)pyrrolidin-3-ylidene)methyl)phenyl)-8-(2-(trifluoromethyl)phenyl)-6,7-dihydro-5H-benzo[7]annulene-3-carboxylic acid] | 89%
3 | O=C(O)c1ccc2c(c1)CCCC(c1ccc(Cl)cc1Cl)=C2c1ccc(/C=C2/CCN(CCCF)C2)c(F)c1 [Compound 23, (Z)-8-(2,4-dichlorophenyl)-9-(3-fluoro-4-((1-(3-fluoropropyl)pyrrolidin-3-ylidene)methyl)phenyl)-6,7-dihydro-5H-benzo[7]annulene-3-carboxylic acid] | 96%
4 | Cl.O=C(O)c1ccc2c(c1)CCC(c1ccc(Cl)cc1Cl)=C2c1ccc(/C=C2/CCN(CCCF)C2)cc1 [Compound 24, (Z)-6-(2,4-dichlorophenyl)-5-(4-((1-(3-fluoropropyl)pyrrolidin-3-ylidene)methyl)phenyl)-7,8-dihydronaphthalene-2-carboxylic acid hydrochloride] | 91%
5 | O=C(O)c1ccc2c(c1)CCCC(c1cccc(C(F)(F)F)c1)=C2c1ccc(/C=C2/CCN(CCCF)C2)cc1 [Compound 25, (Z)-9-(4-((1-(3-fluoropropyl)pyrrolidin-3-ylidene)methyl)phenyl)-8-(3-(trifluoromethyl)phenyl)-6,7-dihydro-5H-benzo[7]annulene-3-carboxylic acid] | 91%
6 | O=C(O)c1ccc2c(c1)CCCC(c1ccc(C(F)(F)F)cc1)=C2c1ccc(/C=C2/CCN(CCCF)C2)cc1 [Compound 26, (Z)-9-(4-((1-(3-fluoropropyl)pyrrolidin-3-ylidene)methyl)phenyl)-8-(4-(trifluoromethyl)phenyl)-6,7-dihydro-5H-benzo[7]annulene-3-carboxylic acid] | 92%
7 | O=C(O)c1ccc2c(c1)CCCC(c1cccc(Cl)c1)=C2c1ccc(/C=C2/CCN(CCCF)C2)cc1 [Compound 27, (Z)-8-(3-chlorophenyl)-9-(4-((1-(3-fluoropropyl)pyrrolidin-3-ylidene)methyl)phenyl)-6,7-dihydro-5H-benzo[7]annulene-3-carboxylic acid] | 93%
8 | O=C(O)c1ccc2c(c1)CCCC(c1ccc(Cl)cc1)=C2c1ccc(/C=C2/CCN(CCCF)C2)cc1 [Compound 28, (Z)-8-(4-chlorophenyl)-9-(4-((1-(3-fluoropropyl)pyrrolidin-3-ylidene)methyl)phenyl)-6,7-dihydro-5H-benzo[7]annulene-3-carboxylic acid] | 93%
9 | Cc1cc(C2=C(c3ccc(/C=C4/CCN(CCCF)C4)cc3)c3ccc(C(=O)O)cc3CCC2)c(C)cc1F [Compound 29, (Z)-8-(4-fluoro-2,5-dimethylphenyl)-9-(4-((1-(3-fluoropropyl)pyrrolidin-3-ylidene)methyl)phenyl)-6,7-dihydro-5H-benzo[7]annulene-3-carboxylic acid] | 92%
10 | Oc1ccc2c(c1)SCCC(c1ccc(Cl)cc1Cl)=C2c1ccc(/C=C2/CCN(CCCF)C2)cc1 [Compound 30, (Z)-4-(2,4-dichlorophenyl)-5-(4-((1-(3-fluoropropyl)pyrrolidin-3-ylidene)methyl)phenyl)-2,3-dihydrobenzo[b]thiepin-8-ol] | 90%
